Key:
[1] = molecular target: T1, Organic anion transporter 3 (OAT3) (Rattus norvegicus, UniProt Q9R1U7); experiment: TP_TRANSPORTER: inhibition of Indoxyl sulfate uptake (Indoxyl sulfate: 2 uM, Melatonin: 1000 uM) in Xenopus laevis oocytes; type: functional, cell-based, Oocyte; design: scale not given: the % may be the effect or the level left; details: probe Indoxyl sulfate, read-out: Activity
T1 sequence (Q9R1U7 whole entry): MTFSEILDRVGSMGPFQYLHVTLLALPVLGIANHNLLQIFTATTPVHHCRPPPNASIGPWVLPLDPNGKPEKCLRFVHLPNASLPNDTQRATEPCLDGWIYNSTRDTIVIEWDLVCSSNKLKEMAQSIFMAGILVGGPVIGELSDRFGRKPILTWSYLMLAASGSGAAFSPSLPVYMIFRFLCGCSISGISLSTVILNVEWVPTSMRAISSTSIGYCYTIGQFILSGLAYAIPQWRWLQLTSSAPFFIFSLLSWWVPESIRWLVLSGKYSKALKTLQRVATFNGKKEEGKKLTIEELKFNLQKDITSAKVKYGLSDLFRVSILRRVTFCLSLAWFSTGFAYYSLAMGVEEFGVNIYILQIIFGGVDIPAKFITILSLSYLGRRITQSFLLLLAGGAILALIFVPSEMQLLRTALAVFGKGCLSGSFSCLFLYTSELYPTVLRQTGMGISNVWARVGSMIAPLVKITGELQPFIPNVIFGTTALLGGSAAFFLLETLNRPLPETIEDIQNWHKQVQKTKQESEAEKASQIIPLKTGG

[2] = molecular target: T1, Organic anion transporter 3 (OAT3); experiment: TP_TRANSPORTER: inhibition of Indoxyl sulfate uptake (Indoxyl sulfate: 2 uM, 6-mercaptopurine: 1000 uM) in Xenopus laevis oocytes; type: functional, cell-based, Oocyte; design: scale not given: the % may be the effect or the level left; details: probe Indoxyl sulfate, read-out: Activity
[3] = molecular target: T1, Organic anion transporter 3 (OAT3); experiment: TP_TRANSPORTER: inhibition of Indoxyl sulfate uptake (Indoxyl sulfate: 2 uM, 5-Methoxytryptophol: 1000 uM) in Xenopus laevis oocytes; type: functional, cell-based, Oocyte; design: scale not given: the % may be the effect or the level left; details: probe Indoxyl sulfate, read-out: Activity
[4] = molecular target: T1, Organic anion transporter 3 (OAT3); experiment: TP_TRANSPORTER: inhibition of Indoxyl sulfate uptake (Indoxyl sulfate: 2 uM, Baclofen: 1000 uM) in Xenopus laevis oocytes; type: functional, cell-based, Oocyte; design: scale not given: the % may be the effect or the level left; details: probe Indoxyl sulfate, read-out: Activity
[5] = molecular target: T1, Organic anion transporter 3 (OAT3); experiment: TP_TRANSPORTER: inhibition of Indoxyl sulfate uptake (Indoxyl sulfate: 2 uM, Cefazolin: 1000 uM) in Xenopus laevis oocytes; type: functional, cell-based, Oocyte; design: scale not given: the % may be the effect or the level left; details: probe Indoxyl sulfate, read-out: Activity
[6] = molecular target: T1, Organic anion transporter 3 (OAT3); experiment: TP_TRANSPORTER: inhibition of Indoxyl sulfate uptake (Indoxyl sulfate: 2 uM, ACV: 1000 uM) in Xenopus laevis oocytes; type: functional, cell-based, Oocyte; design: scale not given: the % may be the effect or the level left; details: probe Indoxyl sulfate, read-out: Activity
[7] = molecular target: T2, Organic anion transporter 3 (Rattus norvegicus, UniProt Q9R1U7); experiment: TP_TRANSPORTER: inhibition of Indoxyl sulfate uptake (Indoxyl sulfate: 2 uM, Ketoprofen: 1000 uM) in Xenopus laevis oocytes; type: functional, cell-based; design: scale not given: the % may be the effect or the level left; details: oocyte
T2 sequence (Q9R1U7 whole entry): T1 sequence (Q9R1U7 whole entry)

[8] = molecular target: T1, Organic anion transporter 3 (OAT3); experiment: TP_TRANSPORTER: inhibition of Indoxyl sulfate uptake (Indoxyl sulfate: 2 uM, HVA: 1000 uM) in Xenopus laevis oocytes; type: functional, cell-based, Oocyte; design: scale not given: the % may be the effect or the level left; details: probe Indoxyl sulfate, read-out: Activity
[9] = molecular target: T1, Organic anion transporter 3 (OAT3); experiment: TP_TRANSPORTER: inhibition of Indoxyl sulfate uptake (Indoxyl sulfate: 2 uM, 3,4-Dihydroxymandelic acid: 1000 uM) in Xenopus laevis oocytes; type: functional, cell-based, Oocyte; design: scale not given: the % may be the effect or the level left; details: probe Indoxyl sulfate, read-out: Activity
[10] = molecular target: T1, Organic anion transporter 3 (OAT3); experiment: TP_TRANSPORTER: inhibition of Indoxyl sulfate uptake (Indoxyl sulfate: 2 uM, 3,4-Dihydroxyphenylacetic acid: 1000 uM) in Xenopus laevis oocytes; type: functional, cell-based, Oocyte; design: scale not given: the % may be the effect or the level left; details: probe Indoxyl sulfate, read-out: Activity
[11] = molecular target: T1, Organic anion transporter 3 (OAT3); experiment: TP_TRANSPORTER: inhibition of Indoxyl sulfate uptake (Indoxyl sulfate: 2 uM, Imidazoleacetic acid: 1000 uM) in Xenopus laevis oocytes; type: functional, cell-based, Oocyte; design: scale not given: the % may be the effect or the level left; details: probe Indoxyl sulfate, read-out: Activity
[12] = molecular target: T2, Organic anion transporter 3; experiment: TP_TRANSPORTER: inhibition of Indoxyl sulfate uptake (Indoxyl sulfate: 2 uM, Valproic acid: 1000 uM) in Xenopus laevis oocytes; type: functional, cell-based; details: oocyte
[13] = molecular target: T1, Organic anion transporter 3 (OAT3); experiment: TP_TRANSPORTER: inhibition of Indoxyl sulfate uptake (Indoxyl sulfate: 2 uM, Benzoic acid: 1000 uM) in Xenopus laevis oocytes; type: functional, cell-based, Oocyte; design: scale not given: the % may be the effect or the level left; details: probe Indoxyl sulfate, read-out: Activity
[14] = molecular target: T1, Organic anion transporter 3 (OAT3); experiment: TP_TRANSPORTER: inhibition of Indoxyl sulfate uptake (Indoxyl sulfate: 2 uM, 3-Methoxy-4-hydroxymandelic acid: 1000 uM) in Xenopus laevis oocytes; type: functional, cell-based, Oocyte; design: scale not given: the % may be the effect or the level left; details: probe Indoxyl sulfate, read-out: Activity
[15] = molecular target: T1, Organic anion transporter 3 (OAT3); experiment: TP_TRANSPORTER: inhibition of Indoxyl sulfate uptake (Indoxyl sulfate: 2 uM, 5-Hydroxyindole acetic acid: 1000 uM) in Xenopus laevis oocytes; type: functional, cell-based, Oocyte; design: scale not given: the % may be the effect or the level left; details: probe Indoxyl sulfate, read-out: Activity

COc1ccc2[nH]cc(CCNC(C)=O)c2c1 [MELATONIN]
activity at 1000 µM [1]: 30.9%

Sc1ncnc2nc[nH]c12 [MERCAPTOPURINE ANHYDROUS]
activity at 1000 µM [2]: 19.1%

COc1ccc2[nH]cc(CCO)c2c1
activity at 1000 µM [3]: 26.8%

NCC(CC(=O)O)c1ccc(Cl)cc1 (stereo not given) [BACLOFEN]
activity at 1000 µM [4]: 25.7%

Cc1nnc(SCC2=C(C(=O)O)N3C(=O)[C@@H](NC(=O)Cn4cnnn4)[C@H]3SC2)s1 [CEFAZOLIN]
activity at 1000 µM [5]: 13.6%

Nc1nc2c(ncn2COCCO)c(=O)[nH]1 [ACYCLOVIR]
activity at 1000 µM [6]: 7.66%

CC(C(=O)O)c1cccc(C(=O)c2ccccc2)c1 (stereo not given) [KETOPROFEN]
Activity [7]: 22.3%

COc1cc(CC(=O)O)ccc1O [HOMOVANILLIC ACID]
activity at 1000 µM [8]: 29.9%

O=C(O)[C@H](O)c1ccc(O)c(O)c1
activity at 1000 µM [9]: 33.5%

O=C(O)Cc1ccc(O)c(O)c1 [3,4-DIHYDROXYPHENYLACETIC ACID]
activity at 1000 µM [10]: 8.86%

O=C(O)Cc1ncc[nH]1 [IMIDAZOLEACETIC ACID]
activity at 1000 µM [11]: 69.4%

CCCC(CCC)C(=O)O [VALPROIC ACID]
Activity [12]: is not an inhibitor [-]

O=C(O)c1ccccc1 [BENZOIC ACID]
activity at 1000 µM [13]: 71.6%

COc1cc([C@@H](O)C(=O)O)ccc1O
activity at 1000 µM [14]: 27.3%

O=C(O)Cc1c[nH]c2ccc(O)cc12
activity at 1000 µM [15]: 18.7%
